Source: patent US20170107179A1 (Tetraphase Pharmaceuticals, Inc., priority 2010, published 2017)
Values after ≈ are worked out from the molar mass of the structure shown. Where two headings read alike, the source gives them in different places.

Assays:
[1] = test system: Legionella pneumophila, 70 isolates, serogroups 1-6; experiment: microbe, parasite or virus in culture; type: cell-based
H. influenzae HI551 = experiment: Rat lung infection model; type: in vivo; conditions: H. influenzae intratracheal
[2] = test system: S. pneumoniae strain SP514; experiment: Immunocompetent CD-1 murine lung infection model; type: in vivo; conditions: immunocompetent CD-1 mice, SP514, orally dosed 30 mg/kg at 5, 24 and 36 hours post-infection (FIG. 2)
Method: Compound 102 was tested in an immunocompetent CD-1 murine model of lung infection challenged with S. pneumoniae strain SP514.

[3] = Preliminary pharmacokinetics in Sprague Dawley rats; conditions: rat, in vivo, po; Sprague Dawley rats (n = 3), initial preliminary testing; read-out: oral bioavailability (% F)
[4] = test system: E. coli DH10B EC1083 TetB; experiment: MIC, E. coli DH10B recombinantly expressing tetracycline-resistance gene; conditions: arabinose-induced, ampicillin in medium
[5] = test system: subset of Gram-negative and Gram-positive isolates; experiment: Minimum bactericidal concentration (MBC), CLSI M26-A, selected strains (Table 11)
S. pneumoniae SP106 = type: cell-based; conditions: SP106, plates containing compound at 5× the MIC, 5% sheep blood
[6] = test system: Gram-negative and Gram-positive organisms (clinical isolates); experiment: Broth microdilution MIC against clinical isolates (CLSI M7-A8), Table 9; type: cell-based
[7] = test system: E. coli DH10B EC1082 TetA; experiment: MIC, E. coli DH10B recombinantly expressing tetracycline-resistance gene; conditions: arabinose-induced, ampicillin in medium
Gram-positive pathogens = experiment: Broth microdilution MIC, respiratory/skin pathogens (Table 12)

CN(C)[C@@H]1C(O)=C(C(N)=O)C(=O)[C@@]2(O)C(O)=C3C(=O)c4c(O)c5c(c(F)c4C[C@H]3C[C@@H]12)CN(C(C)(C)C)C5 [Compound 102]
MIC50 [1]: 2 µg/mL (≈ 3.78 µM) | MIC90 [1]: 8 µg/mL (≈ 15.1 µM) | log10 reduction in CFU versus the 72 hour untreated control, IV (H. influenzae HI551; 25 mg/kg IV at 5, 24 and 48 hours): 3.40±0.31 log10 | log10 reduction in CFU versus the 72 hour untreated control, oral (H. influenzae HI551; 100 mg/kg orally at 5, 24, 48 hours (FIG. 4)): 2.93±0.27 log10 | log10 reduction in CFU versus the 48 hour untreated control [2]: 6.14+/−0.66 log10 | bioavailability [3]: 48.3% | MIC EC1083 TetB [4]: 1 | evaluated isolates with MBC:MIC ratio >2 [5]: 89.3% | mode of action from MBC:MIC ratios [5]: bacteriostatic mode of action | MBC:MIC ([5]; Acinetobacter lwoffii isolate 2919857): 4 | MBC:MIC ([5]; Acinetobacter lwoffii isolate 2919860): 128 | MBC:MIC ([5]; Acinetobacter lwoffii isolate 2919873): 1 | MBC:MIC ([5]; Acinetobacter lwoffii isolate 2919875): 4 | MBC:MIC ([5]; Enierobacter cloacae isolate 2920082): 4 | MBC:MIC ([5]; Enterobacter aerogenes isolate 2919897): 2 | MBC:MIC ([5]; Enterobacter aerogenes isolate 2919900): 8 | MBC:MIC ([5]; Enterobacter aerogenes isolate 2919909): 4 | MBC:MIC ([5]; Enterobacter aerogenes isolate 2919913): 16 | MBC:MIC ([5]; Enterobacter cloacae isolate 2920072): 2 | MBC:MIC ([5]; Enterobacter cloacae isolate 2920119): 1 | MBC:MIC ([5]; Escherichia coli isolate 2921525): >16 | MBC:MIC ([5]; Escherichia coli isolate 2921576): 8 | MBC:MIC ([5]; Klebsiella oxytoca isolate 2919956): 8 | MBC:MIC ([5]; Klebsiella oxytoca isolate 2919964): 4 | MBC:MIC ([5]; Klebsiella oxytoca isolate 2919972): 2 | MBC:MIC ([5]; Klebsiella oxytoca isolate 2919983): 8 | MBC:MIC ([5]; Klebsiella pneumonia isolate 2921528): >8 | MBC:MIC ([5]; Klebsiella pneumoniae isolate 2921529): >8 | MBC:MIC ([5]; Morganella morganii isolate 2919931): >4 | MBC:MIC ([5]; Morganella morganii isolate 2919935): >4 | MBC:MIC ([5]; Morganella morganii isolate 2919945): >2 | MBC:MIC ([5]; Proteus vulgaris isolate 2919822): >1 | MBC:MIC ([5]; Proteus vulgaris isolate 2919827): >2 | MBC:MIC ([5]; Proteus vulgaris isolate 2919835): >4 | MBC:MIC ([5]; Proteus vulgaris isolate 2919836): 4 | MBC:MIC ([5]; Salmonella species isolate 2919986): 4 | MBC:MIC ([5]; Salmonella species isolate 2919990): 4 | MBC:MIC ([5]; Salmonella species isolate 2920006): 4 | MBC:MIC ([5]; Salmonella species isolate 2920008): 4 | MBC:MIC ([5]; Serratia marcescens isolate 2920092): 4 | MBC:MIC ([5]; Serratia marcescens isolate 2920094): >4 | MBC:MIC ([5]; Serratia marcescens isolate 2920100): 2 | MBC:MIC ([5]; Serratia marcescens isolate 2920109): 4 | MBC:MIC ([5]; Shigella species isolate 2919892): 4 | MBC:MIC ([5]; Shigella species isolate 2919894): 16 | MBC:MIC ([5]; Shigella species isolate 2920018): 2 | MBC:MIC ([5]; Shigella species isolate 2920026): 32 | MBC:MIC ([5]; Shigella species isolate 2920028): 8 | MBC:MIC ([5]; Staphylococcus aureus isolate 2919648): >16 | MBC:MIC ([5]; Staphylococcus aureus isolate 2919649): >16 | MBC:MIC ([5]; Staphylococcus aureus isolate 2919650): >16 | MBC:MIC ([5]; Stenotrophomonas maltophilia isolate 2920035): >8 | MBC:MIC ([5]; Stenotrophomonas maltophilia isolate 2920051): 8 | MBC:MIC ([5]; Streptococcus anginosus isolate 2919722): 8 | MBC:MIC ([5]; Streptococcus anginosus isolate 2919742): 16 | MBC:MIC ([5]; Streptococcus anginosus isolate 2919797): 8 | MBC:MIC ([5]; Streptococcus intermedius isolate 2919756): 16 | MBC:MIC ([5]; Streptococcus intermedius isolate 2919759): 64 | MBC:MIC ([5]; Streptococcus intermedius isolate 2919784): 16 | MBC:MIC ([5]; Streptococcus intermedius isolate 2919819): 4 | MBC:MIC ([5]; Streptococcus mitis isolate 2919763): 4 | MBC:MIC ([5]; Streptococcus mitis isolate 2919781): 1 | MBC:MIC ([5]; Streptococcus mitis isolate 2919798): 1 | MBC:MIC ([5]; Streptococcus mitis isolate 2919803): 8 | MBC:MIC ([5]; Streptococcus sanguis isolate 2919749): 4 | MBC:MIC ([5]; Streptococcus sanguis isolate 2919752): 2 | MBC:MIC ([5]; Streptococcus sanguis isolate 2919758): 16 | spontaneous resistance frequency (S. pneumoniae SP106): 1×10^−8 | MICs against tetracycline resistant isolates relative to tetracycline susceptible isolates [6]: not notably altered | MICs relative to tetracycline [6]: comparable MICs relative to tetracycline | potency against tetracycline resistant isolates [6]: maintained potency | potency by MIC50/MIC90, Gram-positive relative to Gram-negative pathogens [6]: more potent by MIC50/MIC90 against Gram-positive pathogens relative to Gram-negative pathogens | potency relative to tetracycline [6]: more potent | MIC50 ([6]; Acinetobacter lwoffii, n=29, read-out: MIC50): 0.12 µg/mL (≈ 0.227 µM) | MIC90 ([6]; Acinetobacter lwoffii, n=29, read-out: MIC90): 0.5 µg/mL (≈ 0.944 µM) | MICs, fold lower than tetracycline ([6]; Acinetobacter lwoffli, S. maltophila, and streptococci): 2-4 fold | MIC50 ([6]; Enterobacter cloacae, n=29, read-out: MIC50): 4 µg/mL (≈ 7.55 µM) | MIC90 ([6]; Enterobacter cloacae, n=29, read-out: MIC90): 8 µg/mL (≈ 15.1 µM) | MIC50 ([6]; Escherichia coli, n=40, read-out: MIC50): 2 µg/mL (≈ 3.78 µM) | MIC90 ([6]; Escherichia coli, n=40, read-out: MIC90): 4 µg/mL (≈ 7.55 µM) | MIC50 ([6]; Kiebsielia oxytoca, n=30, read-out: MIC50): 1 µg/mL (≈ 1.89 µM) | MIC90 ([6]; Kiebsielia oxytoca, n=30, read-out: MIC90): 4 µg/mL (≈ 7.55 µM) | MIC50 ([6]; Klebsiella aerogenes, Enterobacter aerogenes, n=30, read-out: MIC50): 2 µg/mL (≈ 3.78 µM) | MIC90 ([6]; Klebsiella aerogenes, Enterobacter aerogenes, n=30, read-out: MIC90): 2 µg/mL (≈ 3.78 µM) | MIC50 ([6]; Klebsiella pneumoniae, Klebsiella pneumonia, n=27, read-out: MIC50): 4 µg/mL (≈ 7.55 µM) | MIC90 ([6]; Klebsiella pneumoniae, Klebsiella pneumonia, n=27, read-out: MIC90): 16 µg/mL (≈ 30.2 µM) | MIC50 ([6]; Morganella morganii, n=30, read-out: MIC50): 8 µg/mL (≈ 15.1 µM) | MIC90 ([6]; Morganella morganii, n=30, read-out: MIC90): 16 µg/mL (≈ 30.2 µM) | MIC50 ([6]; Proteus vulgaris, n=29, read-out: MIC50): 8 µg/mL (≈ 15.1 µM) | MIC90 ([6]; Proteus vulgaris, n=29, read-out: MIC90): > 16 µg/mL | MIC50 ([6]; Salmonella species, n=30): 2 µg/mL (≈ 3.78 µM) | MIC90 ([6]; Salmonella species, n=30): 2 µg/mL (≈ 3.78 µM) | MIC50 ([6]; Serratia marcescens, n=30, read-out: MIC50): 4 µg/mL (≈ 7.55 µM) | MIC90 ([6]; Serratia marcescens, n=30, read-out: MIC90): 8 µg/mL (≈ 15.1 µM) | MIC50 ([6]; Shigella species, n=30, read-out: MIC50): 0.5 µg/mL (≈ 0.944 µM) | MIC50 ([6]; Staphylococcus aureus, Staphylococcus aureus (MRSA PVL+), n=30, read-out: MIC50): 0.25 µg/mL (≈ 0.472 µM) | MIC90 ([6]; Staphylococcus aureus, Staphylococcus aureus (MRSA PVL+), n=30, read-out: MIC90): 0.25 µg/mL (≈ 0.472 µM) | MIC50 ([6]; Staphylococcus aureus, Staphylococcus aureus MRSA (includes MRSA PVL+ group), n=105, read-out: MIC50): 0.5 µg/mL (≈ 0.944 µM) | MIC90 ([6]; Staphylococcus aureus, Staphylococcus aureus MRSA (includes MRSA PVL+ group), n=105, read-out: MIC90): 2 µg/mL (≈ 3.78 µM) | MIC50 ([6]; Stenotrophomonas maltophilia, n=29, read-out: MIC50): 0.5 µg/mL (≈ 0.944 µM) | MIC90 ([6]; Stenotrophomonas maltophilia, n=29, read-out: MIC90): 2 µg/mL (≈ 3.78 µM) | MIC50 ([6]; Streptococcus anginosus, n=20, read-out: MIC50): 0.06 µg/mL (≈ 0.113 µM) | MIC90 ([6]; Streptococcus anginosus, n=20, read-out: MIC90): 0.25 µg/mL (≈ 0.472 µM) | MIC50 ([6]; Streptococcus intermedius, n=30, read-out: MIC50): 0.12 µg/mL (≈ 0.227 µM) | MIC90 ([6]; Streptococcus intermedius, n=30, read-out: MIC90): 0.12 µg/mL (≈ 0.227 µM) | MIC50 ([6]; Streptococcus mitis, n=29, read-out: MIC50): 0.12 µg/mL (≈ 0.227 µM) | MIC90 ([6]; Streptococcus mitis, n=29, read-out: MIC90): 0.25 µg/mL (≈ 0.472 µM) | MIC50 ([6]; Streptococcus sanguis, n=18, read-out: MIC50): 0.06 µg/mL (≈ 0.113 µM) | MIC90 ([6]; Streptococcus sanguis, n=18, read-out: MIC90): 0.12 µg/mL (≈ 0.227 µM) | MICs, fold higher than those of tigecycline ([6]; evaluated Gram-negative and Gram-positive pathogens, generally): 2-4 fold | MIC EC1082 TetA [7]: 2 | MICs, fold higher than those of tigecycline (Gram-positive pathogens; Gram-positive aerobic pathogens, generally): 2-4 fold | MICs relative to tetracycline (Gram-positive pathogens; pneumococci and beta-hemolytic streptococci): several-fold lower than those of tetracycline | MICs relative to tetracycline (Gram-positive pathogens; staphylococci): comparable to those of tetracycline
